The assay has as its system Sox17 expression in human embryonic stem cell line H9. Description: Dose titration secondary assay: Sox17 intensity, H9. It counts as cell-based. As to the method:
It was important to confirm the activity of hits identified from primary screening and further analyze the range of activity by dose titration. New samples of a selective subset of primary screening hits were obtained as dry powders, solubilized to make fresh stock reagents, and diluted into secondary confirmation assays to evaluate effects on human embryonic stem cells.
Culture of two human embryonic stem cells (H1 and H9) was conducted as described in Example 1. Colonies of cells were maintained in an undifferentiated, pluripotent state on Matrigel™ ([…]) coated polystyrene plastic, using a 1:30 dilution of Matrigel™ in DMEM:F12 to coat the surface. Cells were split by enzymatic passage every four days on average. Passage was performed by exposing cell monolayers to a solution of collagenase (1 mg/ml; Sigma-Aldrich) for 10 to 60 minutes at 37° C. followed by gentle scraping with a pipette tip to recover cell clusters. Clusters were allowed to sediment by gravity, then washed to remove residual collagenase. Cell clusters were split at a 1:3 ratio for maintenance culture or a 1:1 ratio for subsequent assay. The human embryonic stem cell lines were maintained at less than passage 50 and routinely evaluated for normal karyotypic phenotype and absence of mycoplasma contamination.
Cell clusters of the H1 or H9 human embryonic stem cell lines used in the assay were evenly resuspended in culture medium and plated onto Matrigel™-coated 96-well Packard VIEWPLATES (PerkinElmer) in volumes of 100 μl/well. MEF conditioned medium supplemented with 8 ng/ml bFGF was used for initial plating and expansion. Daily feeding was conducted by aspirating spent culture medium from each well and replacing with an equal volume of fresh medium. Cultures were allowed to expand one to three days after plating prior to initiating assay. Plates were maintained at 37° C., 5% CO2 in a humidified box for the duration of assay.
A subset of hits resulting from primary screening was used for follow-up study and subsequent secondary assays. Twenty compounds available as dry powders were solubilized as 10 mM stocks in DMSO and stored dessicated at […] until use Immediately prior to assay, compound stocks were diluted 1:1000 to make 10 μM test compound in DMEM:F12 base medium (Invitrogen) supplemented with 0.5% FCS (HyClone) and 100 ng/ml Activin A (R&D Biosystems). This was further diluted two-fold in series to make a seven point dilution curve for each compound, also in DMEM:F12 base medium with 0.5% FCS and 100 ng/ml Activin A.
Assay was initiated by aspirating culture medium from cell monolayers in each well followed by three washes in PBS to remove residual growth factors and serum. Test volumes of 100 μl per well were added back containing medium with 0.5% FCS and different concentrations of inhibitor compounds with 100 ng/ml Activin A, without Wnt3a. Positive control wells contained the same base medium with 0.5% FCS and with 20 ng/ml Wnt3a (R&D Biosystems) in the absence of test compound. Negative control wells contained the same base medium with 0.5% FCS, in the absence of Activin A, Wnt3a, or test compound. Assay wells were aspirated and fed again with identical concentrations of test compound or control solutions on day 2 of assay. On days 3 and 4, all assay wells were aspirated and fed with DMEM:F12 supplemented with 2% FCS and 100 ng/ml Activin A in the absence of both test compound or Wnt3a. Parallel negative control wells were maintained on days 3 and 4 in DMEM:F12 base medium with 2% FCS.
At the end of culture, cells in 96-well plates were washed twice with PBS then fixed with 4% paraformaldehyde at room temperature for 20 minutes, washed three times more with PBS, and then permeabilized with 0.5% Triton X-100 for 20 minutes at room temperature. After fixing and permeabilizing, cells were washed again three times with PBS and then blocked with 4% chicken serum (Invitrogen) in PBS for 30 minutes at room temperature. […]

Regarding `CN1CCN(C)CCn2cc(c3ccccc32)C2=C(C(=O)NC2=O)c2cn(c3ccccc23)CC1` [Compound 111, 8,11-Dimethyl-6,7,8,9,10,11,12,13-octahydro-20H-5,23:14,19-di(metheno)dibenzo[k,q]pyrrolo[3,4-n][1,4,7,10]tetraazacyclooctadecine-20,22(21H)-dione], the “Sox17 Intensity” value by setting is: (0.156 μM compound) 0.054; (0.313 μM compound) 0.080; (0.625 μM compound) 0.268; (1.25 μM compound) 0.332; (2.5 μM compound) 0.432; (5 μM compound) 0.543. Where the note is “10 μM compound”, the “Sox17 Intensity” value worked out at 0.822.
Take `CCN1CCOCCOCCn2cc(c3ccccc32)C2=C(C(=O)NC2=O)c2cn(c3ccccc23)CC1` [Compound 103, 14-Ethyl-6,7,9,10,13,14,15,16-octahydro-12H,23H-5,26:17,22-di(metheno)dibenzo[k,q]pyrrolo[3,4-n][1,4,7,10,19]dioxatriacyclohenicosine-23,25(24H)-dione]: the “Sox17 Intensity” value was 0.364 (0.156 μM compound); 0.577 (0.313 μM compound); 0.985 (0.625 μM compound); 0.943 (1.25 μM compound); 0.559 (2.5 μM compound); 0.019 (5 μM compound). The “Sox17 Intensity” value (10 μM compound) came to 0.001.
Regarding `O=C1NC(=O)C2=C1c1cn(c3ccccc13)CCOCCOCCN(Cc1cccc3ccccc13)CCn1cc2c2ccccc21` [Compound 136, 14-(Naphthalen-1-ylmethyl)-6,7,9,10,13,14,15,16-octahydro-12H,23H-5,26:17,22-di(metheno)dibenzo[k,q]pyrrolo[3,4-n][1,4,7,10,19]dioxatriazacyclohenicosine-23,25(24H)-dione], the “Sox17 Intensity” value is, setting by setting: (0.156 μM compound) 0.125; (0.313 μM compound) 0.129; (0.625 μM compound) 0.212; (1.25 μM compound) 0.202; (2.5 μM compound) 0.209; (5 μM compound) 0.154. Moreover, the “Sox17 Intensity” value (10 μM compound) is reported as 0.129.
For the compound `O=C1NC(=O)C2=C1c1cn(c3ccccc13)CCOCCOCCN(Cc1cccs1)CCn1cc2c2ccccc21` [Compound 133, 14-(2-Thienylmethyl)-6,7,9,10,13,14,15,16-octahydro-12H,23H-5,26:17,22-di(metheno)dibenzo[k,q]pyrrolo[3,4-n][1,4,7,10,19]dioxatriazacyclohenicosine-23,25(24H)-dione], the “Sox17 Intensity” value by setting is: (0.156 μM compound) 0.149; (0.313 μM compound) 0.398; (0.625 μM compound) 0.678; (1.25 μM compound) 1.110; (2.5 μM compound) 0.857; (5 μM compound) 0.194. Besides, under “10 μM compound”, the “Sox17 Intensity” value is listed as 0.129.
`CN1CCOCCOCCN(C)CCn2cc(c3ccccc32)C2=C(C(=O)NC2=O)c2cn(c3ccccc23)CC1` [Compound 112, 12,21-Dimethyl-11,12,13,14,16,17,20,21,22,23-decahydro-1H,10H,19H-9,4:24,29-di(metheno)dibenzo[k,q]pyrrolo[3,4-n][1,4,7,10,19,22]dioxatetraazacyclotetracosine-1,3(2H)-dione]: the “Sox17 Intensity” value runs as follows: (0.156 μM compound) 0.186; (0.313 μM compound) 0.342; (0.625 μM compound) 0.563; (1.25 μM compound) 0.936; (2.5 μM compound) 1.146; (5 μM compound) 1.127. In addition, the “Sox17 Intensity” value (10 μM compound) was determined as 0.759.

The values are drawn from US20130337564A1, “Treatment of Pluripotent Cells” (Janssen Biotech, Inc., priority 2012, published 2013).
